Columns and labels:
[1] = test system: HCC1187 triple negative breast cancer (TNBC) xenograft model; assay: CIVO microinjection, MCL-1 and CC3 staining; type: in vivo, mice; details: for expression of MCL-1: drug screen; for CC3 expression: marker of apoptosis
Method: (§1) Mice were enrolled into CIVO drug studies when the tumor volume reached approximately 1000 mm^3. Microinjection studies were performed using the CIVO device as previously described (Klinghoffer et al, Science Translational Medicine 2015) The device was configured with 6 injection needles set for a 6 mm injection length and a total volume delivery of 3 μl. A fluorescent tracking marker (FTM) was added to each drug reservoir in vehicle for delivery along with each drug or drug combination. All micro-doses were equivalent to or lower than what would be allowed under FDA guidelines for Exploratory IND (Investigational New Drug) studies and by solubility of drug into vehicle. Total amounts of agents injected are tabulated below in Table 4.
A drug screen was performed to test multiple drugs simultaneously.
FIG. 11 depicts a similar experiment performed on the HCC1187 triple negative breast cancer (TNBC) xenograft model. […] Cells were then stained for CC3 expression (shown in red) as a marker of apoptosis.
FIGS. 20A-20D depicts the HCC1187 triple negative breast cancer (TNBC) xenograft model. Briefly, cells were treated with vehicle, voruciclib alone, ixazomib alone, or voruciclib and ixazomib in combination. Cells were then stained for CC3 expression (shown in red) as a marker of apoptosis.

NudHL1 DLBCL xenografts = assay: CIVO microinjection, CC3 staining after 6 hours; type: in vivo, mice; details: treated for 6 hours
Method: as §1, with “All micro-doses were equivalent to or lower than what would be allowed under FDA guidelines for Exploratory IND (Investigational New Drug) studies and by solubility of drug into vehicle.” left out
FIGS. 9A-9D depict cells that were treated as above and stained for cleaved caspase-3 (CC3) as a marker of apoptosis (shown in red).
FIGS. 10A-10D depict cells that were treated as above and stained for cleaved caspase-3 (CC3) as a marker of apoptosis (shown in red).

[2] = test system: HCC1187 triple negative breast cancer cells; assay: Western blot of treated cells; type: cell-based; details: for XBP1 expression: at 24 hours
Method: Cell lines shown in Table 1, adherent or suspension, were treated in 6-well dishes or T10 flasks respectively, seeded at one million per ml density prior to treatment in total volumes of 3-10 ml. All agents used for in vitro cell treatments were formulated in water/DMSO to achieve required concentrations (as stated in respective figure labels/legends) with DMSO concentrations not exceeding 0.01%. Drug sources are indicated in table under ‘CIVO microinjection studies’. Cells were harvested at experimental time points: 2, 6, or 24 hours post treatment as indicated in respective figures, first by washing cells twice in ice-cold PBS in 15 ml falcon tubes, centrifugation at 1000 rpm for 5 mins followed by lysis of the respective cell pellets as described in section below. Note: Drug resistant NUDHL1 Dox 1000 nM and Toledo Dox 1000 nM cell lines were generated at Presage by culturing parental lines in media with stepwise increments in Doxorubicin concentration over several passages. These cells were used to generate xenografts when resistance to 1 uM Dox was achieved.
Protein lysates were prepared by adding ice-cold 1×RIPA Buffer (from 10×, Millipore) with 1×-3× Halt protease and phosphatase inhibitor cocktail (100×, Pierce) to cell pellets, followed by pulse sonication (˜3-5 secs) three times. Lysates were cleared by centrifugation at 14K rpm for 15-20 mins and the supernatant (lysate) was collected for further analysis. To prepare lysates from cryopreserved xenograft tumor tissue, tissue was first homogenized using a hand-held tissue homogenizer (Cole Palmer) in above lysis buffer followed by pulse sonication and centrifugation as described above. Above steps were carried out under ice cold conditions. […] 20-25 micrograms of protein from each sample were subject to SDS-PAGE using BOLT 4-12% Bis-Tris gels (Thermofisher) and transferred to either 0.45 or 0.2 micron pore size membranes (as applicable based on protein molecular size), and either nitrocellulose (NC) or pvdf (Thermofisher) using manufacturer's protocol, blocked for one hour in 5% milk at room temperature, probed with primary antibodies (Table 2) at 4 deg C. overnight and corresponding HRP-conjugated secondary antibodies (Jackson Immunoresearch, 1:10,000-1:20,000 dilutions) for 1 hour at room temperature. Three PBS/0.01% Tween-20 washes (5-10 mins each) were carried out after each antibody incubation. ECL chemiluminescent substrate (Pierce or GE) and autoradiographic film (Thermofisher) was used for detection of protein signals.
1 ug of mRNA from each condition was used to generate cDNA using the High Capacity cDNA Reverse Transcription Kit (Applied Biosystems) and manufacturer's protocol. 100 ng cDNA was used to conduct a PCR assay to amplify XBP1 u or splice forms (Thermofisher PCR Supermix)—94 deg C. for 2 mins, (94 deg C. for 15 secs, 55 deg C. for 30 secs, 72 deg C. for 1 min)×30 cycles, 72 deg C. for 7 mins, hold at 4 deg C.

tissue section = assay: Tissue section treated with bortezomib; type: in vivo; details: some cells appear resistant
[3] = Body weight in HCC1187 TNBC mouse model; details: in vivo
Method: Mice were enrolled for study when tumors reached an average volume of 150-200 mm^3. Tumor volume was calculated as V=length×width×height, all three dimensions measured using digital calipers along with body weight. Animals were removed from the study when—any one of the three measured dimensions of the tumor exceeding 2 cm, volume exceeding 2500 mm^3, ulceration or body weight loss greater than 20%.

ICK = ICK (Homo sapiens, UniProt Q9UPZ9); assay: Kinase inhibition profile; type: biochemical
MAK = MAK (Homo sapiens, UniProt P20794); assay: Kinase inhibition profile
tumor cells = assay: Solid tumor section, CDK inhibitors in combination with ixazomib; set-up: species or system mice; details: mouse, in vivo
Method: as §1

Sequence of ICK (Q9UPZ9 whole entry): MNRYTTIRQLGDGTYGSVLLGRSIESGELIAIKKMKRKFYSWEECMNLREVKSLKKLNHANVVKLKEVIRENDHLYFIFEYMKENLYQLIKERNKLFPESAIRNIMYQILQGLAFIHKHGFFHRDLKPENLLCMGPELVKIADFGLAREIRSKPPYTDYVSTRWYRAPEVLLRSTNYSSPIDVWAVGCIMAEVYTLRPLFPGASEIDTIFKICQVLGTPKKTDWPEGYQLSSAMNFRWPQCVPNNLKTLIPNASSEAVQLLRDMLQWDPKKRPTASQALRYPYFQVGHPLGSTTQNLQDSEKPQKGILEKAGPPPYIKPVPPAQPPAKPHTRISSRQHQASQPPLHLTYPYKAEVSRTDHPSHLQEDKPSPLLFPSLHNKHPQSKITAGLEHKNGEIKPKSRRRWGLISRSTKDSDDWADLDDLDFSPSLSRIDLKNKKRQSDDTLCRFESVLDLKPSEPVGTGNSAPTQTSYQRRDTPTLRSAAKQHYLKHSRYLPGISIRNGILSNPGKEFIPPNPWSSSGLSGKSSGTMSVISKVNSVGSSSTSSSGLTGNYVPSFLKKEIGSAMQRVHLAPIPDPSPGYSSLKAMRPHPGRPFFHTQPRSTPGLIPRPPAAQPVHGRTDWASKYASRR
Sequence of MAK (P20794 whole entry): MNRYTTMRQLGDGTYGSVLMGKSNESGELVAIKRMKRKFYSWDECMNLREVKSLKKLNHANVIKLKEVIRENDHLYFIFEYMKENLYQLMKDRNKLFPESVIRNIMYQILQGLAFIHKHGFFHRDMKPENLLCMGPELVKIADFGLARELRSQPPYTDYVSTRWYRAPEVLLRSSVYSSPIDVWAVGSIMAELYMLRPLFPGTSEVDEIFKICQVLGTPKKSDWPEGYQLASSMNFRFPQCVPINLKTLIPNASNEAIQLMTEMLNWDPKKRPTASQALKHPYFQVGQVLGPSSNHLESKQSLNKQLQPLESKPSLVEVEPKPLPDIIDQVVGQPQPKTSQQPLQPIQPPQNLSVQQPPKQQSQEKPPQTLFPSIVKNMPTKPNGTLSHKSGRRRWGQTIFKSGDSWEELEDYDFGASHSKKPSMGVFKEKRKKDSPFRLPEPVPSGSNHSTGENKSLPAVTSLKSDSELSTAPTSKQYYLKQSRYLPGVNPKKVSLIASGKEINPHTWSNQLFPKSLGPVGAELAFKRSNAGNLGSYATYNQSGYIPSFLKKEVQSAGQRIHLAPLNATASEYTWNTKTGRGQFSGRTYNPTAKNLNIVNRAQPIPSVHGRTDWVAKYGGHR

CC(C)C[C@H](NC(=O)[C@H](Cc1ccccc1)NC(=O)c1cnccn1)B(O)O [bortezomib]
expression of MCL-1 [1]: increase | expression of MCL-1 ([1]; listed as Bortezomib): markedly increased | CC3 expression [1]: little to no increase | CC3 expression (NudHL1 DLBCL xenografts): little to no increase | MCL-1 protein expression ([2]; Western blot, compared to untreated sample): increased | XBP1 expression [2]: strongly induced | apoptosis (tissue section): induces apoptosis in some cells | body weight of mice [3]: unaffected

CN1CC[C@H](c2c(O)cc(O)c3c(=O)cc(-c4ccccc4Cl)oc23)[C@H](O)C1 [flavopiradol, reference compound]
inhibition of ICK (ICK): potent inhibitor | inhibition of MAK (MAK): potent inhibitor

CC(C)C[C@H](NC(=O)CNC(=O)c1cc(Cl)ccc1Cl)B(O)O [ixazomib]
CC3 expression [1]: little to no increase | synergistic effect on apoptosis of tumor cells (tumor cells): did not exhibit the synergistic effect

C[C@@]12OC(=O)[C@]1([C@@H](O)[C@@H]1C=CCCC1)NC(=O)[C@@H]2CCCl [marizomib]
CC3 expression (NudHL1 DLBCL xenografts): little to no increase

tunicamycin [reference compound]
X-box binding protein 1 (XBP1) expression ([2]; at 6 hours): strongly induced | XBP1 expression [2]: strongly induced
